Two compounds from article PMC6627486, “Ipomoeassin F Binds Sec61α to Inhibit Protein Translocation” (Journal of the American Chemical Society, 2019) can be followed below.

Like-named read-outs stand apart in the source and are kept apart here.

For one assay, the system named is Sec61α. In words: Competition with CT7 photo-affinity labeling of Sec61α in sheep rough microsomes. The assay is classed as binding. The following applies: 10 μM compound, 100 nM CT7, sheep rough microsomes. As for the experimental part:
MDA-MB-231 cells were seeded on fibronectin-coated coverslips at 70% confluency in a 48-well plate and cultured at 37 °C and 5% CO2. After 24 h, culture medium was replaced with fresh medium containing a 20 µM competitor or an equal volume of DMSO vehicle for 30 min at 37 °C and 5% CO2, followed by addition of 0.2 µM (final concentration) fluorescent probe 12. After 1 h incubation at 37 °C and 5% CO2, the coverslips were mounted onto a glass slide with a mounting medium with or without 0.5 µg/ml DAPI.
The fluorescent images were acquired with a confocal microscope (Leica TCS SP5) using 405 nm excitation and 562 nm excitation. For the ER co-localization studies, 1 uM ER-Tracker™ Blue-White DPX was added to the medium after 1 h incubation with probe 12. After 5 min incubation, the coverslips were mounted onto a glass slide and the images were acquired as described above.
CT7 photo-affinity labeling and click chemistry were done as previously described.14 Briefly, SRMs (sheep rough microsomes, isolated as described in reference15) containing 100 nM Sec61 were treated with 10 µM ipomoeassin F/mycolactone or 1% DMSO for 30 min at 0°C, followed by incubation with 100 nM CT7 for 10 min RT. Samples were then photolyzed for 10 min and crosslinked proteins were detected by click chemistry, SDS-PAGE, and in-gel fluorescent scanning (Typhoon Trio, GE Healthcare). […]

The next assay has as its system HCT-116 cells. As to the kind of experiment: Metabolic labelling of nascent proteins in HCT116 cells. The assay is classed as cell-based, human. As for the experimental part: Metabolic Labelling Assays in HCT116 Cells
HCT116 cells were counted using an automated cell counter (BioRad TC20) immediately prior to each experiment. 3 ml of HCT116 cells at a density of 0.166x10^6 cells/mL were seeded to 6-well plates (0.5x10^6 cells/well) and then incubated at 37 °C and 5% CO 2 for 24 h. The compounds were dissolved in DMSO to make drug stocks (10 mM). The stock solutions were diluted with DMEM high glucose culture medium lacking methionine and cysteine to make a fresh working solution immediately prior to each test. Cells were washed twice and 1ml of fresh DMEM lacking methionine and cysteine was added to each well.
Subsequently, the cells were treated with 250 µl of compound solutions in a total volume of 1 ,250 µl/well.
The plate was then incubated at 37 °C and 5% CO 2 for 30 min before 100 µCi 35S-labelled methionine/cysteine was added (Expre35s35s protein labelling mix). Plates were incubated for a further 30 min, then media collected and cells harvested by scraping after four washes in ice-cold PBS. Total protein was acquired by RIPA extraction from the cell pellet, cytoplasmic fraction was acquired by partial permeabilization of the outer cell membranes with 0.15% Digitonin followed by centrifugation, secreted proteins were acquired by TCA precipitation of the media. […]

A further assay has as its system HCT D60G. In words: Alamar Blue viability, HCT116 Sec61α D60G (96 h). The assay is classed as cell-based, human. The protocol: (§1) AlamarBlue Cytotoxicity Assay
(§2) MDA-MB-231, MCF-10A and HCT116. Viable cells were counted with a hemocytometer immediately before each experiment . Experiments were done in triplicate. First, 100 μL of MDA-MB-231 cells or MCF-10A cells at the density of 50,000 cells/mL was seeded in a 96-well plate (5,000 cells/well) and then incubated at 37 °C and 5% CO2 for 24 h. The compounds were dissolved in DMSO (dimethyl sulfoxide) to make drug stocks (10 mM). The stock solutions were diluted with the complete DMEM high glucose culture medium to make a series of gradient fresh working solutions right before each test. Subsequently, the cells were treated with 100 μL of the freshly made gradient working solution in a total volume of 200 μL/well for 72 h. After that, the media were discarded and 200 μL of the fresh complete medium containing 10% of AlamarBlue (resazurin) stock solution was added to each well. The plate was then incubated at 37 °C and 5% CO2 for another 3 h. Emission of each well at 620 nm was detected by a microplate reader (BioTek Synergy H1) at excitation 580 nm. For HCT116 WT and mutant lines, cells were seeded at 1000 cells/ well in complete McCoys medium. […] Cells were treated for 96 h, then viability measured with AlamarBlue, detected using the conditions described but with a BMG Fluostar Optima Microplate Reader. […]
(§3) was determined. […]
Background: The colour change of resazurin is a common sign of viable cells or microbes.

Another assay deals with HCT R66K. In words: Alamar Blue viability, HCT116 Sec61α R66K (96 h). The assay is classed as cell-based, human. As for the experimental part:
as §1, §2, §3

Setting [1] is: Homo sapiens, HCT-116, read-out: cell viability IC50.

The term IC50 denotes the point on the concentration scale where inhibition reaches its midpoint. On to `C/C=C(\C)C(=O)O[C@@H]1[C@@H](O)[C@@H]2O[C@H]3[C@H](O[C@@H](CCCCC)CCCCCCC(=O)CCC(=O)OC[C@@H](O2)[C@H]1OC(=O)/C=C/c1ccccc1)O[C@H](C)[C@H](OC(C)=O)[C@@H]3O` [ipomoeassin F], for which the “competition with CT7 photo-cross-linking to Sec61α” value with Sec61α is listed as “similarly potent competition”. Also, in the assay on HCT-116 cells (HCT-116, 100 nM, 35S labelling), the “inhibition of production of secreted proteins” value is given as “strong inhibition”. The “nascent protein biogenesis in total cellular lysates and cytosolic fractions” value with HCT-116 cells (HCT-116, 35S labelling) is “lack of inhibition”. In addition, the IC50 was found to be 88.1 ± 10.3 nM in the assay with HCT D60G (setting [1]) and 131 ± 15 nM with HCT R66K (setting [1]).
On to `CC(=C\C=C\C(C)=C\[C@H](O)[C@@H](O)C[C@H](C)O)/C=C(C)/C=C/C(=O)O[C@H]1CCCC(=O)O[C@@H]([C@@H](C)C/C(C)=C/[C@@H](C)[C@H](O)C[C@@H](C)O)C/C=C(\C)C[C@@H]1C` [mycolactone, reference compound], for which the “competition with CT7 photo-cross-linking to Sec61α” value with Sec61α was “efficiently competes with CT7”. The IC50 in the assay on HCT D60G (read-out: cell viability IC50) and with HCT R66K (read-out: cell viability IC50) was > 330 nM throughout.
